{
  "source": "patent US11617762B2",
  "about": "“Compositions comprising sulfated polysaccharides” (SEANERGY DERMATOLOGY LTD., priority 2016, dated 2023)",
  "key": {"[1]": {"test_system": "TNFα secretion in RAW 264.7 cells", "assay": "LPS-induced TNFα secretion by RAW 264.7 macrophage cells (ELISA)", "format": "cell-based", "details": "LPS 1 μg/ml, 24 hr", "description": "The potential for synergistic interaction was tested by assaying inflammatory mediator secretion by a macrophage cell line (RAW 264.7), following stimulation with lipopolysaccharide (LPS). […] RAW 264.7 monocyte macrophage cells (approximately 4×10^5/ml) were seeded in 24 well plates containing 800 microliters/well of complete growth medium (DMEM containing 2 mM glutamine, 100 U/ml penicillin and 100 μg/ml streptomycin and 10% fetal bovine serum). The cells were then incubated at 37 degrees Celsius with 5% carbon dioxide for 24 h. At the end of this period, growth medium supplemented with 1 μg/ml lipopolysaccharide (LPS) was added to the cells, together with the test substances (SPS, anti-inflammatory drugs and their combinations) and various controls), and the cells were then incubated for a further 24 hr. period under the same conditions as before. Following this incubation period, the conditioned medium was aspirated from the various test and control wells and centrifuged at 14,000 g for 5 minutes to remove particulate matter. The clear supernatants were then stored at −70 degrees Celsius prior to assaying the inflammatory mediatory content therein. The cytokine/mediator content in the thawed supernatants was assayed using standard ELISA kits for TNFα, IL-6 and PGE2 (BioLegend Inc., San Diego, Calif., USA). Method: Raw 264.7 macrophage cells were incubated (as described above) in the absence or presence of LPS and treated without or with the SPS (Porphyridium C. SPS), Dexamethasone or a combination thereof for 24 hr. Then, TNFα levels in the spent medium were quantified by ELISA, as explained above. DMSO were used as vehicle. Methods: Hydrocortisone, Mometasone furoate and Porphyridium SPS were tested alone and in combination, according to the methods described hereinabove, in order to assess the effect of these various treatments on TNFα secretion in RAW 264.7 cells. Methods: Dexamethasone alone, SPS obtained from brown algae and green algae alone, and combinations of dexamethasone with the SPS, were tested, as described hereinabove, in order to assess the effect of these various treatments on TNFα secretion in RAW 264.7 cells."}, "[2]": {"test_system": "PGE2 secretion in RAW 264.7 cells", "assay": "LPS-induced prostaglandin E2 secretion by RAW 264.7 macrophage cells (ELISA)", "format": "cell-based", "description": "The potential for synergistic interaction was tested by assaying inflammatory mediator secretion by a macrophage cell line (RAW 264.7), following stimulation with lipopolysaccharide (LPS). The inflammatory mediators assayed were: tumor necrosis factor—alpha (TNF-alpha), interleukin 6 (IL-6) and prostaglandin E2 (PGE2). RAW 264.7 monocyte macrophage cells (approximately 4×10^5/ml) were seeded in 24 well plates containing 800 microliters/well of complete growth medium (DMEM containing 2 mM glutamine, 100 U/ml penicillin and 100 μg/ml streptomycin and 10% fetal bovine serum). The cells were then incubated at 37 degrees Celsius with 5% carbon dioxide for 24 h. At the end of this period, growth medium supplemented with 1 μg/ml lipopolysaccharide (LPS) was added to the cells, together with the test substances (SPS, anti-inflammatory drugs and their combinations) and various controls), and the cells were then incubated for a further 24 hr. period under the same conditions as before. Following this incubation period, the conditioned medium was aspirated from the various test and control wells and centrifuged at 14,000 g for 5 minutes to remove particulate matter. The clear supernatants were then stored at −70 degrees Celsius prior to assaying the inflammatory mediatory content therein. The cytokine/mediator content in the thawed supernatants was assayed using standard ELISA kits for TNFα, IL-6 and PGE2 (BioLegend Inc., San Diego, Calif., USA). […] SPS was also investigated on Prostaglandin E2 (PGE2) secretion, as an independent inflammation marker derived from arachidonic acid metabolism. Raw 264.7 macrophage cells were incubated (as described above) in the absence or presence of LPS and treated without or with the SPS (Porphyridium C. SPS), Indomethacin or a combination thereof for 24 hr. Then, PGE2 levels in the supernatant medium were quantified by ELISA, as explained above. DMSO were used as vehicle. […]"}},
  "data": [
    {"molecule": "C[C@@H]1C[C@H]2[C@@H]3CCC4=CC(=O)C=C[C@]4(C)[C@@]3(F)[C@@H](O)C[C@]2(C)[C@@]1(O)C(=O)CO", "note": "[Dexamethasone]", "values": [
      {"measurement": "inhibition at 1 µM", "setting": "[1]; Mus musculus, RAW264.7, Table 2, TNFα, 1.0 μM alone", "value": 34, "unit": "%"},
      {"measurement": "TNFα concentration (ng/ml)", "setting": "[1]; Table 2, 1.0 μM alone", "value": "7,400 ng/ml"}
    ]},
    {"molecule": "O=C(O)Cc1ccccc1Nc1c(Cl)cccc1Cl", "note": "[Diclofenac]", "values": [
      {"measurement": "inhibition at 0.1 µM", "setting": "[2]; Mus musculus, RAW264.7, Table 3, PGE2, 0.1 μM alone, LPS 1 μg/ml, 24 hr", "value": 7.5, "unit": "%"},
      {"measurement": "PGE2", "setting": "[2]; Table 3, 0.1 μM alone, LPS 1 μg/ml, 24 hr", "value": "3,700"}
    ]},
    {"molecule": "C[C@]12CCC(=O)C=C1CC[C@@H]1[C@@H]2[C@@H](O)C[C@@]2(C)[C@H]1CC[C@]2(O)C(=O)CO", "note": "[Hydrocortisone]", "values": [
      {"measurement": "inhibition at 5 µM", "setting": "[1]; Mus musculus, RAW264.7, Table 1, TNFα, 5.0 μM alone, read-out: % inhibition (mean; n = 3)", "value": 27, "unit": "%"},
      {"measurement": "TNFα concentration (ng/ml)", "setting": "[1]; Table 1, 5.0 μM alone", "value": "8,200 ng/ml"}
    ]},
    {"molecule": "C[C@@H]1C[C@H]2[C@@H]3CCC4=CC(=O)C=C[C@]4(C)[C@@]3(Cl)[C@@H](O)C[C@]2(C)[C@@]1(OC(=O)c1ccco1)C(=O)CCl", "note": "[Mometasone furoate]", "values": [
      {"measurement": "inhibition at 0.5 µM", "setting": "[1]; Mus musculus, RAW264.7, Table 1, TNFα, 0.5 μM alone, read-out: % inhibition (mean; n = 3)", "value": 32, "unit": "%"},
      {"measurement": "TNFα concentration (ng/ml)", "setting": "[1]; Table 1, 0.5 μM alone", "value": "7,600 ng/ml"}
    ]},
    {"molecule": "COc1ccc2c(c1)c(CC(=O)O)c(C)n2C(=O)c1ccc(Cl)cc1", "note": "[indomethacin, Indomethacin]", "values": [
      {"measurement": "effect on LPS-stimulated Prostaglandin E2 secretion (in words)", "setting": "[2]; Example 3, FIG. 3, used alone", "value": "inhibited LPS-stimulated Prostaglandin E2 secretion to a certain degree, although this effect was not statistically significant"}
    ]}
  ]
}
